# Assay results as given in patent publication US20230278972A1, “SUBSTITUTED HALOALKYL SULFONANILIDE HERBICIDES” (FMC Corporation, priority 2020, published 2023).
# Columns and labels:
# Assay type in all cases: in vivo
# [1] = system: barnyardgrass (Echinochloa crus-galli); experiment: Test A preemergence, barnyardgrass; settings: Preemergence; for Plant response rating, Barnyardgrass: 0 to 100 scale (0 no effect, 100 complete control); for Barnyardgrass plant response rating: visual injury on 0 to 100 scale (0 no effect, 100 complete control), approximately 10 days
# Outline: (§1)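 Pots: loam soil/sand blend. Pre: directed soil spray at planting. Post: plants 2–10 cm, 1–2 leaf stage. Formulation: non-phytotoxic solvent + surfactant.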
# [2] = system: kochia (Bassia scoparia); experiment: Test A preemergence, kochia; settings: Preemergence; for Plant response rating, Kochia: 0 to 100 scale (0 no effect, 100 complete control); for Kochia plant response rating: visual injury on 0 to 100 scale (0 no effect, 100 complete control), approximately 10 days
# Outline: as §1
# [3] = system: ragweed (common ragweed, Ambrosia artemisiifolia); experiment: Test A preemergence, ragweed; settings: Preemergence; for Plant response rating, Ragweed: 0 to 100 scale (0 no effect, 100 complete control); for Ragweed plant response rating: visual injury on 0 to 100 scale (0 no effect, 100 complete control), approximately 10 days
# Outline: as §1
# [4] = system: Ryegrass, Italian (Italian ryegrass, Lolium multiflorum); experiment: Test A preemergence, Ryegrass, Italian; settings: Preemergence; for Plant response rating, Ryegrass, Italian: 0 to 100 scale (0 no effect, 100 complete control); for Ryegrass, Italian plant response rating: visual injury on 0 to 100 scale (0 no effect, 100 complete control), approximately 10 days
# Outline: as §1
# [5] = system: Foxtail, Giant (giant foxtail, Setaria faberi); experiment: Test A preemergence, Foxtail, Giant; settings: Preemergence; for Plant response rating, Foxtail, Giant: 0 to 100 scale (0 no effect, 100 complete control); for Foxtail, Giant plant response rating: visual injury on 0 to 100 scale (0 no effect, 100 complete control), approximately 10 days
# Outline: as §1
# [6] = system: pigweed (Amaranthus retroflexus); experiment: Test A preemergence, pigweed; settings: for Plant response rating, Pigweed: 0 to 100 scale (0 no effect, 100 complete control); for Pigweed plant response rating: visual injury on 0 to 100 scale (0 no effect, 100 complete control), approximately 10 days
# Outline: (§2)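 Directed soil spray at planting gave the preemergence treatment, while foliar application to one- to two-leaf seedlings (2–10 cm) gave the postemergence one; pots held a loam and sand mixture and chemicals were carried in a non-phytotoxic solvent with surfactant.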
# [7] = system: barnyardgrass (Echinochloa crus-galli); experiment: Test A postemergence, barnyardgrass; settings: Postemergence, 0 to 100 scale (0 no effect, 100 complete control)
# Outline: as §2
# [8] = system: kochia (Bassia scoparia); experiment: Test A postemergence, kochia; settings: Postemergence
# Outline: as §1
# [9] = system: ragweed (common ragweed, Ambrosia artemisiifolia); experiment: Test A postemergence, ragweed; settings: Postemergence
# Outline: as §1
# [10] = system: Ryegrass, Italian (Italian ryegrass, Lolium multiflorum); experiment: Test A postemergence, Ryegrass, Italian; settings: Postemergence
# Outline: as §1
# [11] = system: Foxtail, Giant (giant foxtail, Setaria faberi); experiment: Test A postemergence, Foxtail, Giant; settings: Postemergence
# Outline: as §1
# [12] = system: pigweed (Amaranthus retroflexus); experiment: Test A postemergence, pigweed; settings: Postemergence
# Outline: as §1
# [13] = system: wheat (Triticum aestivum); experiment: Test A postemergence, wheat; settings: Postemergence
# Outline: as §2
# [14] = system: corn (Zea mays); experiment: Test A postemergence, corn; settings: Postemergence
# Outline: as §1
# [15] = system: blackgrass (Alopecurus myosuroides); experiment: Test A postemergence, blackgrass; settings: Postemergence, 0 to 100 scale (0 no effect, 100 complete control)
# Outline: as §1
# [16] = system: galium (catchweed bedstraw, Galium aparine); experiment: Test A postemergence, galium; settings: Postemergence
# Outline: as §2
# [17] = 31 g ai/ha, visual injury, approx. 10 days
# [18] = 31 g ai/ha, visual injury on 0 to 100 scale (0 no effect, 100 complete control), approx. 10 days
# [19] = 125 g ai/ha, 0 to 100 scale (0 no effect, 100 complete control)
# [20] = 125 g ai/ha, visual injury, approx. 10 days
# [21] = 500 g ai/ha, visual injury approx. 10 days
# [22] = 500 g ai/ha, visual injury approx. 10 days, 0 to 100 scale (0 no effect, 100 complete control)
# [23] = 500 g ai/ha, visual injury vs untreated controls after approx. 10 days
# [24] = 500 g ai/ha, visual injury vs untreated controls after approx. 10 days, 0 to 100 scale (0 no effect, 100 complete control)
smiles,measurement,setting,value
CCC(C)C(=O)OCN(c1cc(C2=NOC3(CCCC3)C2)c(C)cc1C)S(=O)(=O)C(F)(F)F (stereo not drawn) [Compound 151],"Plant response rating, Barnyardgrass",[1]; [17],0
same,Barnyardgrass plant response rating,[1]; 125 g ai/ha,90
same,"Plant response rating, Kochia",[2]; [17],0
same,Kochia plant response rating,[2]; 125 g ai/ha,0
same,"Plant response rating, Ragweed",[3]; [17],0
same,Ragweed plant response rating,[3]; 125 g ai/ha,30
same,"Plant response rating, Ryegrass, Italian",[4]; [17],30
same,"Ryegrass, Italian plant response rating",[4]; 125 g ai/ha,90
same,"Plant response rating, Foxtail, Giant",[5]; [17],60
same,"Foxtail, Giant plant response rating",[5]; 125 g ai/ha,100
same,"Plant response rating, Pigweed",[6]; [17],50
same,Pigweed plant response rating,[6]; 125 g ai/ha,90
same,"Plant response rating, Barnyardgrass",[7]; 31 g ai/ha,0
same,"Plant response rating, Barnyardgrass",[7]; 125 g ai/ha,30
same,"Plant response rating, Kochia",[8]; [18],10
same,"Plant response rating, Kochia",[8]; [19],10
same,"Plant response rating, Ragweed",[9]; [18],0
same,"Plant response rating, Ragweed",[9]; [19],40
same,"Plant response rating, Ryegrass, Italian",[10]; [18],0
same,"Plant response rating, Ryegrass, Italian",[10]; [19],0
same,"Plant response rating, Foxtail, Giant",[11]; [18],0
same,"Plant response rating, Foxtail, Giant",[11]; [19],30
same,"Plant response rating, Pigweed",[12]; [18],30
same,"Plant response rating, Pigweed",[12]; [19],30
same,"Plant response rating, Wheat",[13]; [18],0
same,"Plant response rating, Wheat",[13]; [19],50
same,"Plant response rating, Corn",[14]; [18],0
same,"Plant response rating, Corn",[14]; [19],10
same,"Plant response rating, Blackgrass",[15]; 31 g ai/ha,0
same,"Plant response rating, Blackgrass",[15]; 125 g ai/ha,0
same,"Plant response rating, Galium",[16]; [18],60
same,"Plant response rating, Galium",[16]; [19],70
Cc1cc(C)c(N(S(=O)(=O)C(F)(F)F)S(=O)(=O)C(F)(F)F)cc1N1CCC2(CCCC2)C1=O [Compound 280],"Plant response rating, Barnyardgrass",[1]; [20],90
same,Barnyardgrass plant response rating,[1]; 500 g ai/ha,90
same,"Plant response rating, Kochia",[2]; [20],40
same,Kochia plant response rating,[2]; 500 g ai/ha,70
same,"Plant response rating, Ragweed",[3]; [20],30
same,Ragweed plant response rating,[3]; 500 g ai/ha,70
same,"Plant response rating, Ryegrass, Italian",[4]; [20],100
same,"Ryegrass, Italian plant response rating",[4]; 500 g ai/ha,100
same,"Plant response rating, Foxtail, Giant",[5]; [20],100
same,"Foxtail, Giant plant response rating",[5]; 500 g ai/ha,100
same,"Plant response rating, Pigweed",[6]; [20],70
same,Pigweed plant response rating,[6]; 500 g ai/ha,100
same,"Plant response rating, Barnyardgrass",[7]; 125 g ai/ha,20
same,"Plant response rating, Barnyardgrass",[7]; [21],90
same,"Plant response rating, Kochia",[8]; [19],20
same,"Plant response rating, Kochia",[8]; [22],50
same,"Plant response rating, Ragweed",[9]; [19],30
same,"Plant response rating, Ragweed",[9]; [22],50
same,"Plant response rating, Ryegrass, Italian",[10]; [19],40
same,"Plant response rating, Ryegrass, Italian",[10]; [22],70
same,"Plant response rating, Foxtail, Giant",[11]; [19],0
same,"Plant response rating, Foxtail, Giant",[11]; [22],20
same,"Plant response rating, Pigweed",[12]; [19],60
same,"Plant response rating, Pigweed",[12]; [22],90
same,"Plant response rating, Wheat",[13]; [19],40
same,"Plant response rating, Wheat",[13]; [22],60
same,"Plant response rating, Corn",[14]; [19],0
same,"Plant response rating, Corn",[14]; [22],10
same,"Plant response rating, Blackgrass",[15]; 125 g ai/ha,0
same,"Plant response rating, Blackgrass",[15]; [21],0
same,"Plant response rating, Galium",[16]; [19],80
same,"Plant response rating, Galium",[16]; [22],90
Cc1cc(C)c(C(=O)N2CCC3(CCCCC3)CC2)cc1NS(=O)(=O)C(F)(F)F [Compound 195],"Plant response rating, Barnyardgrass",[1]; [20],60
same,"Plant response rating, Barnyardgrass",[1]; 500 g ai/ha,90
same,"Plant response rating, Kochia",[2]; [20],0
same,"Plant response rating, Kochia",[2]; 500 g ai/ha,0
same,"Plant response rating, Ragweed",[3]; [20],0
same,"Plant response rating, Ragweed",[3]; 500 g ai/ha,0
same,"Plant response rating, Ryegrass, Italian",[4]; [20],20
same,"Plant response rating, Ryegrass, Italian",[4]; 500 g ai/ha,90
same,"Plant response rating, Foxtail, Giant",[5]; [20],70
same,"Plant response rating, Foxtail, Giant",[5]; 500 g ai/ha,90
same,"Plant response rating, Pigweed",[6]; [20],60
same,"Plant response rating, Pigweed",[6]; 500 g ai/ha,80
same,"Plant response rating, Barnyardgrass",[7]; 125 g ai/ha,0
same,Barnyardgrass plant response rating,[7]; [23],0
same,"Plant response rating, Kochia",[8]; [19],0
same,Kochia plant response rating,[8]; [24],0
same,"Plant response rating, Ragweed",[9]; [19],0
same,Ragweed plant response rating,[9]; [24],50
same,"Plant response rating, Ryegrass, Italian",[10]; [19],0
same,"Ryegrass, Italian plant response rating",[10]; [24],0
same,"Plant response rating, Foxtail, Giant",[11]; [19],0
same,"Foxtail, Giant plant response rating",[11]; [24],0
same,"Plant response rating, Pigweed",[12]; [19],0
same,Pigweed plant response rating,[12]; [24],0
same,"Plant response rating, Wheat",[13]; [19],0
same,Wheat plant response rating,[13]; [24],0
same,"Plant response rating, Corn",[14]; [19],20
same,Corn plant response rating,[14]; [24],0
same,"Plant response rating, Blackgrass",[15]; 125 g ai/ha,0
same,Blackgrass plant response rating,[15]; [23],0
same,"Plant response rating, Galium",[16]; [19],10
same,Galium plant response rating,[16]; [24],20
